Measurements: patent publication US6670168B1, “Recombinant Streptomyces hygroscopicus host cells that produce 17-desmethylrapamycin” (Kosan Bioscience, Inc., priority 1999, dated 2003)

Test: immunosuppressive activity compared with rapamycin (no test described)
Conditions: relative to rapamycin; qualitative statement, no method or data given

## COC1CC(CC(C)C2CC(=O)C(C)C=C(C)C(O)CC(=O)C(C)CC(C)C=CC=CC=C(C)C(O)CC3CCC(C)C(O)(O3)C(=O)C(=O)N3CCCCC3C(=O)O2)CCC1O (stereo not shown) [16-desmethyl-27-desmethoxyrapamycin]
  immunosuppressive activity: lower immunosuppressive activity than rapamycin
